Experimental data taken from ChEMBL document CHEMBL4507265 (2021).

How the values were obtained:
[1] = target: Homeodomain-interacting protein kinase 2 (Homo sapiens) (UniProt Q9H2X6); details: Compound concentration 1000.0 nM
[2] = target: AP2-associated protein kinase 1 (Homo sapiens) (UniProt Q2M2I8); details: Compound concentration 1000.0 nM
[3] = target: Tyrosine-protein kinase receptor Tie-1 (Homo sapiens) (UniProt P35590); details: Compound concentration 1000.0 nM
[4] = target: Mitogen-activated protein kinase kinase kinase 12 (Homo sapiens) (UniProt Q12852); details: Compound concentration 1000.0 nM
[5] = tested on: Mast/stem cell growth factor receptor Kit (Homo sapiens), P10721 [D816V]; details: Compound concentration 1000.0 nM
[6] = target: Serine/threonine-protein kinase Chk1 (Homo sapiens) (UniProt O14757); details: Compound concentration 1000.0 nM
[7] = target: Serine/threonine-protein kinase OSR1 (Homo sapiens) (UniProt O95747); details: Compound concentration 1000.0 nM
[8] = tested on: Phosphatidylinositol 4,5-bisphosphate 3-kinase catalytic subunit alpha isoform (Homo sapiens), P42336 [E545K]; details: Compound concentration 1000.0 nM
[9] = target: NT-3 growth factor receptor (Homo sapiens) (UniProt Q16288); details: Compound concentration 1000.0 nM
NT-3 growth factor receptor (Homo sapiens), sequence (Q16288 32-839 limits assumed): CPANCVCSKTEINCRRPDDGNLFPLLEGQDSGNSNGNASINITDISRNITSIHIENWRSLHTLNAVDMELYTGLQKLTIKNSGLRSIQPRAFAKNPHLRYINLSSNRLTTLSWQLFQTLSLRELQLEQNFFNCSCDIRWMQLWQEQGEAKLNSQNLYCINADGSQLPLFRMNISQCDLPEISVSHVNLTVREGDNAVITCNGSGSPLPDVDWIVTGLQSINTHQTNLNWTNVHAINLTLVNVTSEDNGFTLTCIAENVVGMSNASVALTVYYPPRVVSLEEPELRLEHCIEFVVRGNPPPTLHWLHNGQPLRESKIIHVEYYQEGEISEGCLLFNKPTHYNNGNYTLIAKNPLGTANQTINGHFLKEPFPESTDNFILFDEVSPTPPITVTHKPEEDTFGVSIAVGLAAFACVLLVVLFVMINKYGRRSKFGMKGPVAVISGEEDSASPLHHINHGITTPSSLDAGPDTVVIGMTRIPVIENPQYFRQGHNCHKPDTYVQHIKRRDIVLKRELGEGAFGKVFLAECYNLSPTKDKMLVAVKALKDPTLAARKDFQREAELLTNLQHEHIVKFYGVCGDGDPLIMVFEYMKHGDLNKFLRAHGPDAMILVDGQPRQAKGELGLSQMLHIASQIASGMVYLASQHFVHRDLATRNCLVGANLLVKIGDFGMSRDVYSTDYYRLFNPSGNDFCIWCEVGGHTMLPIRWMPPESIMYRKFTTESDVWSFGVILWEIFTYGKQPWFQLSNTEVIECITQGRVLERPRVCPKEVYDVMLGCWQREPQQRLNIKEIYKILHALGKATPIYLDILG

[10] = tested on: Phosphatidylinositol 4,5-bisphosphate 3-kinase catalytic subunit alpha isoform (Homo sapiens), P42336 [Q546K]; details: Compound concentration 1000.0 nM
Phosphatidylinositol 4,5-bisphosphate 3-kinase catalytic subunit alpha isoform (Homo sapiens), P42336 [Q546K], sequence (P42336 whole entry Q546K, canonical isoform): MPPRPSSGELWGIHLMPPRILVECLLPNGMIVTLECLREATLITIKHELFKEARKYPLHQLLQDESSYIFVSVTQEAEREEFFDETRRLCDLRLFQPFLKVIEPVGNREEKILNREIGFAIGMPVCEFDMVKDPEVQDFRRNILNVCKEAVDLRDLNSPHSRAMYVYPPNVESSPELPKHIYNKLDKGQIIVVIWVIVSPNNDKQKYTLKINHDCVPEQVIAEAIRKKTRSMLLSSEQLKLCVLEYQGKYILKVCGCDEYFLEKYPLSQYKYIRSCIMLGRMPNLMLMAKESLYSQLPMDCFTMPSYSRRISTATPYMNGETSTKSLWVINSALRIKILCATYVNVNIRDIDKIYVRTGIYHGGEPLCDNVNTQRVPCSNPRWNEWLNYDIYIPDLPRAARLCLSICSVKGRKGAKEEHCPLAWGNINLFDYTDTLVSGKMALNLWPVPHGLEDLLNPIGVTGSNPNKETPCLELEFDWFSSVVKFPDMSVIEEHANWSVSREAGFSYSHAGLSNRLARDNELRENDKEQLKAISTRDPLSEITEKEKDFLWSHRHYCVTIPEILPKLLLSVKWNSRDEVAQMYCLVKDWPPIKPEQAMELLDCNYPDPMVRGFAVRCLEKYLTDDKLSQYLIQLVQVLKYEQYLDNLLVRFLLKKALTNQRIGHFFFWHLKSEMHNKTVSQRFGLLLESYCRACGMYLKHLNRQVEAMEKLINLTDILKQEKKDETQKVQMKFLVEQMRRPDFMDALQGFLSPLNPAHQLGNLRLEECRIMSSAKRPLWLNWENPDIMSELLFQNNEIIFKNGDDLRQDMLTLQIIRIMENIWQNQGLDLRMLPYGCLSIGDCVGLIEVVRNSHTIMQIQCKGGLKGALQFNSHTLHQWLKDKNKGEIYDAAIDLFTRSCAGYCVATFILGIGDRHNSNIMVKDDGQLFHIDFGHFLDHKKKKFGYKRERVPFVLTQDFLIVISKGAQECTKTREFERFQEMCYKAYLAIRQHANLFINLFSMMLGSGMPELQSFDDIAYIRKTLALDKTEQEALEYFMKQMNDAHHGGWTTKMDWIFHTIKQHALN

[11] = target: Calcium/calmodulin-dependent protein kinase kinase 1 (Homo sapiens) (UniProt Q8N5S9); details: Compound concentration 1000.0 nM
[12] = target: Hormonally up-regulated neu tumor-associated kinase (Homo sapiens) (UniProt P57058); details: Compound concentration 1000.0 nM
[13] = target: 5-hydroxytryptamine receptor 7 (Homo sapiens) (UniProt P34969); details: Compound concentration 10.0 uM
[14] = target: D(2) dopamine receptor (Homo sapiens) (UniProt P14416); details: Compound concentration 10.0 uM
[15] = tested on: Fibroblast growth factor receptor 3 (Homo sapiens), P22607 [G697C]; details: Compound concentration 1000.0 nM
[16] = target: Tyrosine-protein kinase receptor UFO (Homo sapiens) (UniProt P30530); details: Compound concentration 1000.0 nM
[17] = tested on: Epidermal growth factor receptor (Homo sapiens), P00533 [G719S]; details: Compound concentration 1000.0 nM
[18] = target: Serine/threonine-protein kinase 32C (Homo sapiens) (UniProt Q86UX6); details: Compound concentration 1000.0 nM
[19] = target: Serine/threonine-protein kinase MRCK beta (Homo sapiens) (UniProt Q9Y5S2); details: Compound concentration 1000.0 nM
[20] = target: Ephrin type-A receptor 6 (Homo sapiens) (UniProt Q9UF33); details: Compound concentration 1000.0 nM
[21] = target: Ribosomal protein S6 kinase alpha-4 (Homo sapiens) (UniProt O75676); details: Compound concentration 1000.0 nM
Ribosomal protein S6 kinase alpha-4 (Homo sapiens), sequence (O75676 whole entry, looked up): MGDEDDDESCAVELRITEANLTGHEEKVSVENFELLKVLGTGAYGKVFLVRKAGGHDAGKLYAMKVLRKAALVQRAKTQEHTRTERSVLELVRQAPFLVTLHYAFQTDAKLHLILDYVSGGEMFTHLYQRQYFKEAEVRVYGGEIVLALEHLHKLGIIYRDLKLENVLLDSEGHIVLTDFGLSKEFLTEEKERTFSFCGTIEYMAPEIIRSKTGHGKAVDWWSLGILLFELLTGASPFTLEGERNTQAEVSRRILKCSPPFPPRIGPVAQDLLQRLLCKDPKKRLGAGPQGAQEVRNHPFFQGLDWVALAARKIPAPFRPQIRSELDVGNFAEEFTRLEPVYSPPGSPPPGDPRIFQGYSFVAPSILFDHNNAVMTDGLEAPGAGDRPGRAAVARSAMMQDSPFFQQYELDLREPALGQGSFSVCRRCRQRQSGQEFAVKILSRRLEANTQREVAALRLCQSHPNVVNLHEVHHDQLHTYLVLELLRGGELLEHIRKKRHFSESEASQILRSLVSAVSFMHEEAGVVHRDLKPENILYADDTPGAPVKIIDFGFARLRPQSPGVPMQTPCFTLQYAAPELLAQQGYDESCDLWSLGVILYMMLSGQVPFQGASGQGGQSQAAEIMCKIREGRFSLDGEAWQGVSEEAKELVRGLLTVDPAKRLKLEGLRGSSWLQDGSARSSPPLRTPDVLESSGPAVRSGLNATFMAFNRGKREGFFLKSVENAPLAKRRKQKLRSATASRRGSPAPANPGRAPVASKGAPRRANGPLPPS

[22] = target: Serine/threonine-protein kinase PAK 4 (Homo sapiens) (UniProt O96013); details: Compound concentration 1000.0 nM
Serine/threonine-protein kinase PAK 4 (Homo sapiens), sequence (O96013 whole entry, looked up): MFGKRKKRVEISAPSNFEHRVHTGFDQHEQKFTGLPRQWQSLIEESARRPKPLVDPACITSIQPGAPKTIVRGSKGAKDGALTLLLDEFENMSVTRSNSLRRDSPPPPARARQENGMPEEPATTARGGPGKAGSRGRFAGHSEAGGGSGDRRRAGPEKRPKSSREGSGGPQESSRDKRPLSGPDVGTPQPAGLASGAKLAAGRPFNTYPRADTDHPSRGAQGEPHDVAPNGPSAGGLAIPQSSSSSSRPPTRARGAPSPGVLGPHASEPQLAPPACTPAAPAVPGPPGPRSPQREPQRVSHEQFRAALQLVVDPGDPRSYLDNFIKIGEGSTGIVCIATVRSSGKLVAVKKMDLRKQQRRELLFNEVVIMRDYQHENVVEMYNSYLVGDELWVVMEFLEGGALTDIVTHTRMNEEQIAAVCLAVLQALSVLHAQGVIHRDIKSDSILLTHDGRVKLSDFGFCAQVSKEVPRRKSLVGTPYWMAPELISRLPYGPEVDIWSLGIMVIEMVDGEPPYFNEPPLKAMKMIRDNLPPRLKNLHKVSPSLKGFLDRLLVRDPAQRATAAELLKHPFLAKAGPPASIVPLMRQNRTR

[23] = target: Beta-adrenergic receptor kinase 1 (Homo sapiens) (UniProt P25098); details: Compound concentration 1000.0 nM
[24] = target: Tyrosine-protein kinase Yes (Homo sapiens) (UniProt P07947); details: Compound concentration 1000.0 nM
[25] = target: Alpha-1B adrenergic receptor (Homo sapiens) (UniProt P35368); details: Compound concentration 10.0 uM
[26] = target: Phosphorylase b kinase gamma catalytic chain, skeletal muscle/heart isoform (Homo sapiens) (UniProt Q16816); details: Compound concentration 1000.0 nM
[27] = target: Mitogen-activated protein kinase kinase kinase 5 (Homo sapiens) (UniProt Q99683); details: Compound concentration 1000.0 nM
[28] = tested on: Receptor-type tyrosine-protein kinase FLT3 (Homo sapiens), P36888 [K663Q]; details: Compound concentration 1000.0 nM
[29] = target: Bone morphogenetic protein receptor type-1B (Homo sapiens) (UniProt O00238); details: Compound concentration 1000.0 nM
[30] = tested on: Mast/stem cell growth factor receptor Kit (Homo sapiens), P10721 [V559D]; details: Compound concentration 1000.0 nM
[31] = target: Inhibitor of nuclear factor kappa-B kinase subunit alpha (Homo sapiens) (UniProt O15111); details: Compound concentration 1000.0 nM
[32] = target: Ephrin type-B receptor 4 (Homo sapiens) (UniProt P54760); details: Compound concentration 1000.0 nM
[33] = target: G protein-coupled receptor kinase 3 (Homo sapiens) (UniProt P35626); details: Compound concentration 1000.0 nM
[34] = tested on: Receptor-type tyrosine-protein kinase FLT3 (Homo sapiens), P36888 [UNDEFINED MUTATION]; details: Compound concentration 1000.0 nM
[35] = target: Citron Rho-interacting kinase (Homo sapiens) (UniProt O14578); details: Compound concentration 1000.0 nM
[36] = tested on: Phosphatidylinositol 4,5-bisphosphate 3-kinase catalytic subunit alpha isoform (Homo sapiens), P42336 [M1043I]; details: Compound concentration 1000.0 nM
[37] = target: Testis-specific serine/threonine-protein kinase 3 (Homo sapiens) (UniProt Q96PN8); details: Compound concentration 1000.0 nM
Testis-specific serine/threonine-protein kinase 3 (Homo sapiens), sequence (Q96PN8 whole entry): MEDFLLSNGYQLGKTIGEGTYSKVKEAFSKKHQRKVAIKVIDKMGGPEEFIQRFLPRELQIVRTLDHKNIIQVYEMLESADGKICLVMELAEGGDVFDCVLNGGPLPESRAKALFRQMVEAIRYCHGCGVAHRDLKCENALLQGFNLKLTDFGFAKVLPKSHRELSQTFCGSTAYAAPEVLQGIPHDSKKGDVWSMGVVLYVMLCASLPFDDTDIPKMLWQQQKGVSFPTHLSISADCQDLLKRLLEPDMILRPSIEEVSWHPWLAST

[38] = target: Serine/threonine-protein kinase pim-1 (Homo sapiens) (UniProt P11309); details: Compound concentration 1000.0 nM
[39] = target: Tyrosine-protein kinase JAK3 (Homo sapiens) (UniProt P52333); details: Compound concentration 1000.0 nM
[40] = target: Mitogen-activated protein kinase kinase kinase kinase 4 (Homo sapiens) (UniProt O95819); details: Compound concentration 1000.0 nM
[41] = target: Serine/threonine-protein kinase PLK1 (Homo sapiens) (UniProt P53350); details: Compound concentration 1000.0 nM
[42] = tested on: Hepatocyte growth factor receptor (Homo sapiens), P08581 [M1250T]; details: Compound concentration 1000.0 nM
[43] = target: Tyrosine-protein kinase ABL1 (Homo sapiens) (UniProt P00519); details: Compound concentration 1000.0 nM
[44] = target: Serine/threonine-protein kinase 32B (Homo sapiens) (UniProt Q9NY57); details: Compound concentration 1000.0 nM
Serine/threonine-protein kinase 32B (Homo sapiens), sequence (Q9NY57 whole entry): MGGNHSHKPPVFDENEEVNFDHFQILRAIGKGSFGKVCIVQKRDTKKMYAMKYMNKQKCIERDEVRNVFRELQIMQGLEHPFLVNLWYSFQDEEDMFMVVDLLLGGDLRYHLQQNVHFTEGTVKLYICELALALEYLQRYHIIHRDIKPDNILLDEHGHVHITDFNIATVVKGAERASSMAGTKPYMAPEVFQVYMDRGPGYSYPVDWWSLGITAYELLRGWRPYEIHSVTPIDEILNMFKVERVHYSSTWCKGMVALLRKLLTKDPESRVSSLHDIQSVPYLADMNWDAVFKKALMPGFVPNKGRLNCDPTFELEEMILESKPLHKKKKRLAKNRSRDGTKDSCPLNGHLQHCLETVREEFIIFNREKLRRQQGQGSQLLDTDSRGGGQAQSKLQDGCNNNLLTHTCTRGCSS

Tyrosine-protein kinase receptor Tie-1 (Homo sapiens), sequence (P35590 whole entry): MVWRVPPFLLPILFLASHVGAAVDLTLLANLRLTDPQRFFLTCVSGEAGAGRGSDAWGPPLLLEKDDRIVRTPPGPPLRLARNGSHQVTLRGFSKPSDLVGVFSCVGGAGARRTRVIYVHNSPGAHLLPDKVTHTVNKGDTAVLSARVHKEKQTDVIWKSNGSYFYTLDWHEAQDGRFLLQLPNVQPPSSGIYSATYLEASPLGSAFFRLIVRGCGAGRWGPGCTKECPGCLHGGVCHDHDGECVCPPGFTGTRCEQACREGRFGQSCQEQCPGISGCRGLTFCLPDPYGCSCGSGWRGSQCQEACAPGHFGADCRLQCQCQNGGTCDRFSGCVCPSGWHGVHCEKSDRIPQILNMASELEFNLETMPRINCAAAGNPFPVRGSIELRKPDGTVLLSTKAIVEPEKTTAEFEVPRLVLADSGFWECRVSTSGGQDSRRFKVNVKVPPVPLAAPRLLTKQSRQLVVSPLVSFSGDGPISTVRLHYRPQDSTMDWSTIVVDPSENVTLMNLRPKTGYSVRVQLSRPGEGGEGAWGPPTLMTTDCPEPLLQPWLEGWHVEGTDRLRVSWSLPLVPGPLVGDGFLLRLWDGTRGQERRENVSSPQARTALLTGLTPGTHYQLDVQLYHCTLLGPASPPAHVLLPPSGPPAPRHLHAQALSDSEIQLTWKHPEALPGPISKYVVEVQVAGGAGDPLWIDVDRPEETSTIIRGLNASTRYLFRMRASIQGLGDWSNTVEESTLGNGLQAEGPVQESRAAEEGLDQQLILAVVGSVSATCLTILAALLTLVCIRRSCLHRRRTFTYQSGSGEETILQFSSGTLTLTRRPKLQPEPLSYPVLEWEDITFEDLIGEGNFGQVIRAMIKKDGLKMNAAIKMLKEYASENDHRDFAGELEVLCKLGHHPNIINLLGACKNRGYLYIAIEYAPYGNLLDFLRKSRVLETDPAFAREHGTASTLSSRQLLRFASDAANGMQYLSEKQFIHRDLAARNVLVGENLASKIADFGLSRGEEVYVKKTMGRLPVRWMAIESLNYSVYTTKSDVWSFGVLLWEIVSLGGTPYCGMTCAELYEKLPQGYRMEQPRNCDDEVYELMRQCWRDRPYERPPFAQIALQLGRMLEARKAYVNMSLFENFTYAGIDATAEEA

NS(=O)(=O)c1cc(NC(=O)Cc2ccccc2)ccc1Oc1cccc(Cl)c1 [BAY-1797]
inactive: residual activity [1] 62% | residual activity [2] 88% | residual activity [3] 100% | residual activity [4] 80% | residual activity [5] 77% | residual activity [6] 99% | residual activity [7] 78% | residual activity [8] 77% | residual activity [9] 87% | residual activity [10] 92% | residual activity [11] 100% | residual activity [12] 84% | inhibition [13] 35.2% | inhibition [14] -7.81% | residual activity [15] 100% | residual activity [16] 93% | residual activity [17] 74% | residual activity [18] 100% | residual activity [19] 100% | residual activity [20] 83% | residual activity [21] 90% | residual activity [22] 87% | residual activity [23] 97% | residual activity [24] 86% | inhibition [25] -0.38% | residual activity [26] 87% | residual activity [27] 100% | residual activity [28] 99% | residual activity [29] 94% | residual activity [30] 81% | residual activity [31] 63% | residual activity [32] 98% | residual activity [33] 100% | residual activity [34] 53% | residual activity [35] 100% | residual activity [36] 93% | residual activity [37] 87% | residual activity [38] 89% | residual activity [39] 96% | residual activity [40] 71% | residual activity [41] 73% | residual activity [42] 99% | residual activity [43] 75% | residual activity [44] 100%

NS(=O)(=O)c1cc(NC(=O)C2(c3ccccc3Cl)CC2)ccc1Oc1cccc(Cl)c1 [BAY-207]
inactive: residual activity [1] 88% | residual activity [2] 100% | residual activity [3] 85% | residual activity [4] 100% | residual activity [5] 93% | residual activity [6] 80% | residual activity [7] 100% | residual activity [8] 96% | residual activity [9] 88% | residual activity [10] 84% | residual activity [11] 100% | residual activity [12] 75% | inhibition [13] 17.3% | inhibition [14] -9.74% | residual activity [15] 100% | residual activity [16] 89% | residual activity [17] 98% | residual activity [18] 100% | residual activity [19] 62% | residual activity [20] 54% | residual activity [21] 89% | residual activity [22] 74% | residual activity [23] 100% | residual activity [24] 90% | inhibition [25] -8.97% | residual activity [26] 89% | residual activity [27] 88% | residual activity [28] 100% | residual activity [29] 81% | residual activity [30] 79% | residual activity [31] 100% | residual activity [32] 57% | residual activity [33] 100% | residual activity [34] 100% | residual activity [35] 78% | residual activity [36] 98% | residual activity [37] 100% | residual activity [38] 94% | residual activity [39] 64% | residual activity [40] 100% | residual activity [41] 92% | residual activity [42] 68% | residual activity [43] 88% | residual activity [44] 91%
